Reference: article PMC10467082, “Anti-Toxoplasma gondii Effects of Lipopeptide Derivatives of Lycosin-I” (Toxins, 2023)
“Also recorded” adds a separate entry of the source. Square brackets hold non-standard residues; d marks the D form. Ends that are not written are not given here. Peptide text beside a SMILES is read from it. * marks the point of attachment. Lauroyl = CCCCCCCCCCCC(=O)*; Ahx = NCCCCCC(=O)O

Columns and labels:
[1] = system: human foreskin fibroblasts (HFFs); assay: CCK-8 cell viability assay on host cells; assay type: cell-based; conditions: CCK-8, HFFs, 24 h; for IC50: 80-1.25 μM twofold dilution, three independent experiments, read-out: half-inhibitory concentration (IC50) on HFF viability; for cytotoxicity to HFFs: comparison with Lycosin-I where stated
Method: HFF cells were seeded in 96-well plates (1 × 10^4 cells per well). After 24 h of incubation, the previous complete medium was removed and replaced with the new complete medium containing different concentrations (80–1.25 μM, twofold serial dilution) of lipopeptides. Cells were treated with the complete medium in one well as the control group (each group was set up with three wells). After 24 h, 10 μL of CCK-8 reagent was added to each well and then incubated for 2 h. The absorbance value was measured at 450 nm using a microplate reader. Three independent experiments were carried out.

[2] = mouse serum (b5) / 10% serum, 24 h, mass spectrometry; cited from earlier work
Description: Cationic peptides with an α-helical structure found in venoms constitute a class of antimicrobial peptides (AMPs). In this class, amphiphilic peptides with net positive charges tend to adopt an α-helix structure when in contact with a hydrophilic/hydrophobic interface (such as the membrane of microorganisms), which helps the AMPs to insert into the cell membrane and disrupt the integrity of the cell membrane. Phospholipids on cell membranes are one of the targets of transmembrane peptides with an α -helical structure. […] The serum stability of Lycosin-I was in ...

T. gondii tachyzoites [3] = assay: Serum stability assay: serum incubation followed by trypan blue assay; assay type: in vitro ADME, Toxoplasma gondii; conditions: 100 μM in PBS containing 10% fetal bovine serum, 37 °C, 24 h; read-out tachyzoite mortality by trypan blue; three independent experiments
Method: (§1) To evaluate the difference of anti-T. gondii in the vitro between lipopeptides and Lycosin-I, we set up different concentration gradients, including 2.5 μM, 5 μM, 10 μM, 20 μM and 40 μM. The freshly obtained tachyzoites (3 × 10^6) were incubated with different concentrations of lipopeptides and PBS at room temperature for 2 h, then centrifuged at 3000 rbp for 8 min and the supernatant was discarded. The tachyzoite pellet was resuspended in PBS and mixed well. Then, the tachyzoite suspension was stained with 0.4% trypan blue staining solution for 5 min. Tachyzoite viability was observed under a light microscope (Motic China Group Co., Ltd., Xiamen, China), and five fields were randomly selected to calculate tachyzoite mortality. Three independent experiments were carried out.
A combination of serum incubation and a trypan blue assay was used to investigate whether or not the anti-Toxoplasma activity of lipopeptides and Lycosin-I was affected by serum. Briefly, stock solutions (1 mM) of Lycosin-I, L-C12 and L-an were diluted into 100 μM solutions in PBS containing 10% fetal bovine serum, and incubated at 37 °C for 24 h. Fresh tachyzoites were then treated with these solutions as described in the method in Section 5.3 for lipopeptide screening. Three independent experiments were carried out.

[4] = system: T. gondii tachyzoites (RH strain); assay: Trypan blue assay of tachyzoite mortality (lipopeptide screening); assay type: cell-based, Toxoplasma gondii; conditions: 2.5, 5, 10, 20, 40 μM, 2 h at room temperature
Method: as §1

T. gondii tachyzoites [5] = assay: Intracellular proliferation assay of tachyzoites in HFFs; assay type: cell-based, Toxoplasma gondii; conditions: 10 μM, 24 h
Method: HFFs were seeded in 24-well plates (1 × 10^5 cells per well) with 14 mm coverslips and incubated for 24 h. The HFFs were infected with fresh tachyzoites at a MOI of 5 for 2 h. The HFFs were then washed twice with PBS to remove extracellular tachyzoites and then treated with Lycosin-I (5 μM, 10 μM), L-C12 (5 μM, 10 μM), L-an (5 μM, 10 μM), SDZ (10 μM, positive control) and DMEM (negative control) for 24 h each. The HFFs were then washed twice with PBS, fixed with methanol for 5 min, and then stained with Giemsa for 15 min. The coverslips were observed under a light microscope to count the number of tachyzoites in 100 parasitophorous vacuoles (PVs). Three independent experiments were carried out.

T. gondii tachyzoites [6] = assay type: cell-based, Toxoplasma gondii; conditions: 10 μM, 7 days, 500 tachyzoites per well, HFFs
Method: The HFF cells were seeded in 6-well plates (1 × 10^6 cells per well) and incubated for 48–72 h. Cells in the 6-well plates were infected with 500 fresh tachyzoites per well for 2 h. The well in which cells were not infected with tachyzoites was considered the blank control group. Cells infected with tachyzoites were then treated with Lycosin-I (10 μM), L-C12 (10 μM), L-an (10 μM), SDZ (10 μM, positive control) and DMEM (negative control), respectively. After 7 days, HFFs in the plates were washed twice with PBS, fixed with methanol for 5 min, and then stained with crystal violet for 20 min. Six-well plates were washed with running water, dried, photographed, and then the number and area of plaques were counted using Photoshop version 2020. Three independent experiments were carried out.

RH strain of T. gondii = assay type: in vivo, mouse; conditions: BALB/c mice, 1 × 10^3 tachyzoites i.p.; 4 mg/kg/day i.p. for 7 days; monitored 15 days; n = 8
Method: To evaluate the anti-T. gondii effect of lipopeptides in vivo, we established a mouse model acutely infected with the RH strain of T. gondii. Forty 8-week-old female BALB/c mice weighing 17–19 g were randomly divided into 5 groups (n = 8 per group) and intraperitoneally injected with 1 × 10^3 tachyzoites per mouse. Lycosin-I, L-C12, L-an and sulfadiazine (SDZ) were dissolved in PBS, respectively. As these peptides are small linear peptides that are easily degraded by pepsin; mice were treated with these peptides via intraperitoneal injection (the same way that the mice were infected with T. gondii) rather than oral gavage. After 4 h of infection, mice were traperitoneally injected with 4 mg/kg of Lycosin-I, L-C12, L-an and sulfadiazine solution (once a day) for 7 days. Mice in the negative control group were treated with PBS. Mice in this condition observed daily and the time of death was recorded. The experiment was approved by the Ethics Committee of the School of Basic Medicine of Central South University (approval number: 2021-KT24).

IFN-γ = assay type: in vivo, mouse; conditions: 4 mg/kg, after 5 days of treatment, qRT-PCR
Method: (§2) Once T. gondii has infected a host, a number of inflammatory responses can be induced in the host to resist T. gondii invasion and proliferation. Therefore, we wanted to investigate the expression levels of anti-inflammatory and pro-inflammatory factors in the mice treated with lipopeptides. The expression levels of IFN-γ, TNF-α, IL-4 and IL-10 in the spleen tissues of mice after 5 days of treatment were determined via qRT-PCR (Figure 5). […] Compared to the PBS group, all treatment groups promoted the upregulation of the pro-inflammatory cytokines IFN-γ and TNF-α and the anti-inflammatory cytokine IL-4.
(§3) Total RNA was extracted from each sample using Total RNA Isolation Kit (ENOVA BIO Co., Ltd., Wuhan, China), in accordance with the manufacturer’s instructions. Reverse transcription of RNA into cDNA was performed using the PerfectStart Uni RT&qPCR Kit (TransGen Biotech Co., Ltd., Beijing, China) in accordance with the instructions. cDNA was used as a template for qRT-PCR using PerfectStart Uni RT&qPCR Kit (TransGen Biotech Co., Ltd., Beijing, China). Primers, listed in Table 2, were designed and synthesized by a biotechnology company (Sangon Biotech Co., Ltd., Shanghai, China). Analysis was performed using the comparative threshold cycle method (2^−∆∆Ct). The gene expression levels of genes were normalized to those of housekeeping genes (β-actin or GAPDH).

TNF-α = assay type: in vivo, mouse; conditions: 4 mg/kg, after 5 days of treatment, qRT-PCR
Method: as §2, §3

IL-10 = assay type: in vivo, mouse; conditions: 4 mg/kg, after 5 days of treatment, qRT-PCR
Method: as §2, §3

IL-4 = assay type: in vivo, mouse; conditions: 4 mg/kg, after 5 days of treatment, qRT-PCR
Method: as §2, §3

T. gondii tachyzoites [7] = assay: Invasion assay of tachyzoites into HFFs; assay type: cell-based, Toxoplasma gondii; conditions: tachyzoites pretreated 2 h at 10 μM, HFFs infected MOI 5 for 2 h
Method: The HFF cells were seeded in 24-well plates with 14 mm coverslips (1 × 10^5 cells per well) and incubated for 24 h. Fresh tachyzoites were obtained aseptically from the peritoneal fluid of the KM mouse acutely infected with T. gondii. The tachyzoites were treated with Lycosin-I (5 μM, 10 μM), L-C12 (5 μM, 10 μM), L-an (5 μM, 10 μM), SDZ (10 μM, positive control) and DMEM (negative control) for 2 h each. The HFFs were then infected with pre-treated tachyzoites at a multiplicity of infection (MOI) of 5 (tachyzoites/cells = 5). After 2 h, the previous complete medium was removed and the HFFs were washed twice with PBS to remove extracellular tachyzoites. They were then fixed with methanol for 5 min, and then stained with Giemsa for 15 min. The coverslips were examined under a light microscope. The invasion rate of tachyzoites was calculated by counting the number of cells invaded by tachyzoites and the total number of cells in 5 randomly selected fields. Three independent experiments were carried out.

Compound: CCCCCCCCCCCC(=O)N[C@@H](CCCCN)C(=O)NCC(=O)N[C@@H](Cc1c[nH]c2ccccc12)C(=O)N[C@@H](Cc1ccccc1)C(=O)N[C@@H](CCCCN)C(=O)N[C@@H](C)C(=O)N[C@@H](CCSC)C(=O)N[C@@H](CCCCN)C(=O)N[C@@H](CO)C(=O)N[C@H](C(=O)N[C@@H](C)C(=O)N[C@@H](CCCCN)C(=O)N[C@@H](Cc1ccccc1)C(=O)N[C@H](C(=O)N[C@@H](C)C(=O)N[C@@H](CCCCN)C(=O)N[C@@H](CCC(=O)O)C(=O)N[C@@H](CCCCN)C(=O)N[C@@H](CC(C)C)C(=O)N[C@@H](CCCCN)C(=O)N[C@@H](CCC(=O)O)C(=O)N[C@@H](Cc1c[nH]cn1)C(=O)N[C@@H](CC(C)C)C(=O)O)[C@@H](C)CC)[C@@H](C)CC [L-C12] (Lauroyl-KGWFKAMKSIAKFIAKEKLKEHL-OH)
- IC50 [1]: 15.6 µM

Compound: CCCCCCCCCCCC(=O)N[C@@H](CCCCN)C(=O)NCC(=O)N[C@@H](Cc1c[nH]c2ccccc12)C(=O)N[C@@H](Cc1ccccc1)C(=O)N[C@@H](CCCCN)C(=O)N[C@@H](C)C(=O)N[C@@H](CCSC)C(=O)N[C@@H](CCCCN)C(=O)N[C@@H](CO)C(=O)N[C@H](C(=O)N[C@@H](C)C(=O)N[C@@H](CCCCN)C(=O)N[C@@H](Cc1ccccc1)C(=O)N[C@H](C(=O)N[C@@H](C)C(=O)N[C@@H](CCCCN)C(=O)N[C@@H](CCC(=O)O)C(=O)N[C@@H](CCCCN)C(=O)N[C@@H](CC(C)C)C(=O)N[C@@H](CCCCN)C(=O)N[C@@H](CCC(=O)O)C(=O)N[C@@H](Cc1cnc[nH]1)C(=O)N[C@@H](CC(C)C)C(=O)O)[C@@H](C)CC)[C@@H](C)CC [L-C12] (Lauroyl-KGWFKAMKSIAKFIAKEKLKEHL-OH)
- degradation after incubation in serum [2]: not degraded
- anti-T. gondii activity after serum treatment compared to control untreated with serum (T. gondii tachyzoites [3]): no significant difference; also recorded: retained substantial anti-T. gondii activity
- cytotoxicity to HFFs [1]: higher cytotoxicity

Compound: CC[C@H](C)[C@H](NC(=O)[C@H](Cc1ccccc1)NC(=O)[C@H](CCCCN)NC(=O)[C@H](C)NC(=O)[C@@H](NC(=O)[C@H](CO)NC(=O)[C@H](CCCCN)NC(=O)[C@H](CCSC)NC(=O)[C@H](C)NC(=O)[C@H](CCCCN)NC(=O)[C@H](Cc1ccccc1)NC(=O)[C@H](Cc1c[nH]c2ccccc12)NC(=O)CNC(=O)[C@H](CCCCN)NC(=O)CCCCCN)[C@@H](C)CC)C(=O)N[C@@H](C)C(=O)N[C@@H](CCCCN)C(=O)N[C@@H](CCC(=O)O)C(=O)N[C@@H](CCCCN)C(=O)N[C@@H](CC(C)C)C(=O)N[C@@H](CCCCN)C(=O)N[C@@H](CCC(=O)O)C(=O)N[C@@H](Cc1c[nH]cn1)C(=O)N[C@@H](CC(C)C)C(=O)O [L-an] (H-[Ahx]KGWFKAMKSIAKFIAKEKLKEHL-OH)
- anti-T. gondii activity after serum treatment compared to control untreated with serum (T. gondii tachyzoites [3]): no significant difference; also recorded: retained substantial anti-T. gondii activity
- IC50 [1]: 30.9 µM
- cytotoxicity to HFFs [1]: no significant difference

Compound: NCCCCCC(=O)O [aminocaproic acid]
- anti-T. gondii activity in vitro (tachyzoite mortality) [4]: no effect

Compound: H-KGWFKAMKSIAKFIAKEKLKEHL-OH [Lycosin-I]
- proliferation rate of tachyzoites in HFFs (negative group = 100%) (T. gondii tachyzoites [5]; HFFs infected at MOI 5): below 55%
- PVs with 16 tachyzoites (T. gondii tachyzoites [5]; proportion in 100 PVs): hard to see a PV with 16 tachyzoites
- number and area of plaques in contrast with DMEM group (T. gondii tachyzoites [6]): significantly reduced
- plaques compared to DMEM group (T. gondii tachyzoites [6]): reduced
- survival time of mice compared to control group (RH strain of T. gondii): significantly prolonged the survival time
- expression of IFN-γ in spleen compared to PBS group (IFN-γ): promoted the expression
- expression of TNF-α in spleen compared to PBS group (TNF-α): promoted the expression
- expression of IL-10 in spleen compared to PBS group (IL-10): inhibited the upregulation of IL-10
- expression of IL-4 in spleen compared to PBS group (IL-4): promoted IL-4 expression
- inhibition of tachyzoite invasion compared with SDZ (T. gondii tachyzoites [7]): more pronounced inhibition than SDZ

Compound: KGWFKAMKSIAKFIAKEKLKEHL [Lycosin-I]
- anti-T. gondii activity after serum treatment compared to control untreated with serum (T. gondii tachyzoites [3]): significantly had reduced anti-T. gondii activity; also recorded: only slightly decreased
- cytotoxicity to HFFs [1]: concentration-dependent cytotoxicity
